Source: ChEMBL document CHEMBL3421588, “Discovery of novel indirubin-3'-monoxime derivatives as potent inhibitors against CDK2 and CDK9” (Bioorg Med Chem Lett, 2015)
Activity calls are given as the source filed them. No cut-off for these calls is given here.

Assays:
A2780 = assay: Cytotoxicity against human A2780 cells assessed as inhibition of cell growth by MTT assay; format: functional, cell-based
[1] = Cytotoxicity against human HCT116 cells assessed as inhibition of cell growth by MTT assay; format: functional, cell-based, HCT-116
[2] = molecular target: Cyclin-dependent kinase 2/cyclin E1 (Homo sapiens, UniProt P24941); assay: Inhibition of against CDK2/cyclinE1 (unknown origin) using Ulight-CFFKNIVTPRTPPPSQGK-amide substrate and ATP incubated for 15 mins by fluorescence based assay; format: protein-complex assay
CDK9/cyclin T1 = CDK9/cyclin T1 (Homo sapiens, UniProt P50750); assay: Inhibition of against CDK9/cyclinT1 (unknown origin) using Ulight-CFFKNIVTPRTPPPSQGK-amide substrate and ATP incubated for 90 mins by fluorescence based assay; format: protein-complex assay
[3] = Cytotoxicity against human […] cells assessed as inhibition of cell growth by MTT assay; format: functional, cell-based
[4] = Cytotoxicity against human BGC823 cells assessed as inhibition of cell growth by MTT assay; format: functional, cell-based, BGC-823
HepG2 = assay: Cytotoxicity against human HepG2 cells assessed as inhibition of cell growth by MTT assay; format: functional, cell-based
[5] = molecular target: CDK9/cyclin T1 (Homo sapiens) (UniProt O60563+P50750); assay: Inhibition of against CDK9/cyclinT1 (unknown origin) at 10 uM using Ulight-CFFKNIVTPRTPPPSQGK-amide substrate and ATP incubated for 90 mins by fluorescence based assay; format: protein-complex assay
BGC-823 = assay: Cytotoxicity against human BGC823 cells assessed as inhibition of cell growth at 10 uM by MTT assay; format: functional, cell-based
Homo sapiens = species on record: Homo sapiens; assay: Selectivity index, ratio of IC50 for CDK2/cyclinE1 (unknown origin) to IC50 for CDK9/cyclinT1 (unknown origin)
[6] = Homo sapiens, A2780, read-out: IC50
[7] = Homo sapiens, HCT-116, read-out: IC50
[8] = Homo sapiens, BGC-823, read-out: IC50
[9] = Homo sapiens, HepG2, read-out: IC50

Sequence of CDK9/cyclin T1 (O60563 whole entry): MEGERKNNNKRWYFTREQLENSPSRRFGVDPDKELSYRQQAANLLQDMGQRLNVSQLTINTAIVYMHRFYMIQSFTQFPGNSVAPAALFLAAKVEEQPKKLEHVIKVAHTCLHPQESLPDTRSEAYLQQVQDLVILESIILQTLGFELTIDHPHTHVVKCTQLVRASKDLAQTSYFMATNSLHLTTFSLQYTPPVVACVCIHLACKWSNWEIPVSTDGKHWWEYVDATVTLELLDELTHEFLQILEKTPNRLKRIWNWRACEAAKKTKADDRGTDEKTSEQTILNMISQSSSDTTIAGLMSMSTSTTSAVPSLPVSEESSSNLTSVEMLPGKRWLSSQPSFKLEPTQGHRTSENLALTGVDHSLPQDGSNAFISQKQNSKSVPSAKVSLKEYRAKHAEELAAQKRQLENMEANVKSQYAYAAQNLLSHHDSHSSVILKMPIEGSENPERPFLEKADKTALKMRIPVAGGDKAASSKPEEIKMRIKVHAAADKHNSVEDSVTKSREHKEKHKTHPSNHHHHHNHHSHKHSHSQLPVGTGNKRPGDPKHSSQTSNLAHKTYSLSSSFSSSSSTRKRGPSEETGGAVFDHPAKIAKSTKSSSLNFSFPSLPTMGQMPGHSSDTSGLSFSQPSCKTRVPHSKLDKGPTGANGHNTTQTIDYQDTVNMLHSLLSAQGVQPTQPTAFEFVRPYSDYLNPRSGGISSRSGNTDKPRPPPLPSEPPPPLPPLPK
Sequence of CDK9/cyclin T1 (P50750 whole entry): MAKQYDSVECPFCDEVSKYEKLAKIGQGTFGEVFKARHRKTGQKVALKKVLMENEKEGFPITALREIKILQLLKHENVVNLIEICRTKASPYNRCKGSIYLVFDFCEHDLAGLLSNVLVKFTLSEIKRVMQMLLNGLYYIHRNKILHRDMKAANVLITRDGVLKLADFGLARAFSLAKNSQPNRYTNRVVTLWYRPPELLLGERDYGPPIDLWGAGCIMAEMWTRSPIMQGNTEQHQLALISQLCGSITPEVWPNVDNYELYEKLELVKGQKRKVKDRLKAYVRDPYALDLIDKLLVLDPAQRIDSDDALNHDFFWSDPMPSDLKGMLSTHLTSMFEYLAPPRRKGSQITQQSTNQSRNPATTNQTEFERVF

Row | SMILES | IC50 [2] [nM] | IC50 (CDK9/cyclin T1) [nM] | inhibition [5] [%] | IC50 (A2780; a2780) | IC50 ([1]; hct-116) | IC50 [3] | IC50 ([4]; bgc-823) | IC50 (HepG2; hepg2) | also measured
1 | Nc1ccc2c(c1)/C(=C1/Nc3cc(F)c(F)cc3/C1=N\O)C(=O)N2 | – | – | 60 | – | – | – | – | – | IC50 (A2780; [6]): 2260 nM; IC50 [1, 7]: 5820 nM; growth inhibition (GI) (BGC-823): inactive; IC50 ([3]; Homo sapiens, read-out: IC50): 2540 nM; IC50 (HepG2; [9]): 5620 nM
2 | COc1ccc2c(c1)/C(=C1/Nc3cc(F)c(F)cc3/C1=N\OCCO)C(=O)N2 | 400 | 300 | 84 | – | – | – | – | – | –
3 | O=C1Nc2ccc(F)cc2/C1=C1/Nc2cc(F)c(F)cc2/C1=N\O | 2700 | 1700 | 85 | – | – | – | – | – | IC50 (A2780; [6]): 2370 nM; IC50 [1, 7]: 940 nM; IC50 ([3]; Homo sapiens, read-out: IC50): 2720 nM; IC50 [4, 8]: 9650 nM; IC50 (HepG2; [9]): 2680 nM
4 | CN1C(=O)/C(=C2\Nc3cc(F)c(F)cc3\C2=N/O)c2ccccc21 | – | – | 52 | – | – | – | – | – | IC50 (A2780; [6]): 4030 nM; IC50 [1, 7]: 2220 nM; IC50 ([3]; Homo sapiens, read-out: IC50): 2770 nM; IC50 [4, 8]: 9200 nM; IC50 (HepG2; [9]): 2540 nM
5 | CO/N=C1/C(=C2/C(=O)Nc3ccc([N+](=O)[O-])cc32)Nc2cc(F)c(F)cc21 | – | – | < 30 | Not Active | Not Active | Not Active | Not Active | Not Active | –
6 | CO/N=C1/C(=C2/C(=O)Nc3ccc(F)cc32)Nc2cc(F)c(F)cc21 | – | – | < 30 | Not Active | Not Active | Not Active | Not Active | Not Active | –
7 | O=C1Nc2cc(Cl)ccc2/C1=C1/Nc2cc(F)c(F)cc2/C1=N\O | – | – | 59 | – | – | – | – | – | –
8 | O=C1Nc2c(cccc2C(F)(F)F)/C1=C1/Nc2cc(F)c(F)cc2/C1=N\O | – | – | < 30 | Not Active | Not Active | Not Active | Not Active | Not Active | –
9 | O=C1Nc2c(Cl)cc(Cl)cc2/C1=C1/Nc2cc(F)c(F)cc2/C1=N\O | – | – | < 30 | Not Active | Not Active | Not Active | Not Active | Not Active | –
10 | COc1ccc2c(c1)/C(=C1/Nc3cc(F)c(F)cc3/C1=N\O)C(=O)N2 | 1100 | 1900 | 81 | – | – | – | – | – | –
11 | O=C1Nc2ccc(Cl)cc2/C1=C1/Nc2cc(F)c(F)cc2/C1=N\O | 6400 | 400 | 86 | – | – | – | – | – | Ratio IC50 (Homo sapiens): 15

Now from value to compound, other results behind:

Row | IC50 [2] [nM] | IC50 (CDK9/cyclin T1) [nM] | inhibition [5] [%] | SMILES | IC50 (A2780; a2780) | IC50 ([1]; hct-116) | IC50 [3] | IC50 ([4]; bgc-823) | IC50 (HepG2; hepg2) | also measured
12 | 1000 | 700 | 89 | O=C1Nc2ccc([N+](=O)[O-])cc2/C1=C1/Nc2cc(F)c(F)cc2/C1=N\O | – | – | – | – | – | IC50 (A2780; [6]): 2220 nM; IC50 [1, 7]: 2160 nM; IC50 ([3]; Homo sapiens, read-out: IC50): 2210 nM; IC50 [4, 8]: 6140 nM; IC50 (HepG2; [9]): 2450 nM
13 | – | – | 67 | O=C1Nc2ccccc2/C1=C1/Nc2cc(F)c(F)cc2/C1=N\O | – | – | – | – | – | IC50 (A2780; [6]): 2500 nM; IC50 [1, 7]: 2320 nM; IC50 ([3]; Homo sapiens, read-out: IC50): 3040 nM; IC50 [4, 8]: 6450 nM; IC50 (HepG2; [9]): 1910 nM
14 | – | – | < 30 | O=C1Nc2ccc([N+](=O)[O-])cc2/C1=C1/Nc2ccc(OC(F)(F)F)cc2/C1=N\O | Not Active | Not Active | Not Active | Not Active | Not Active | –
15 | – | – | 65 | Cc1ccc2c(c1)/C(=C1/Nc3cc(F)c(F)cc3/C1=N\O)C(=O)N2 | – | – | – | – | – | –
16 | – | – | < 30 | COc1ccc2c(c1)/C(=C1/Nc3ccc(OC(F)(F)F)cc3/C1=N\O)C(=O)N2 | Not Active | Not Active | Not Active | Not Active | Not Active | –
17 | 700 | 2400 | 70 | O=Nc1c(-c2c(O)[nH]c3ccccc23)[nH]c2ccccc12 [INDIRUBIN-3-MONOXIME] | – | – | – | – | – | –
18 | – | – | < 30 | O=C1Nc2ccc(F)cc2/C1=C1/Nc2ccc(OC(F)(F)F)cc2/C1=N\O | Not Active | Not Active | Not Active | Not Active | Not Active | –
19 | – | – | < 30 | O=C1Nc2c(Cl)cccc2/C1=C1/Nc2cc(F)c(F)cc2/C1=N\O | Not Active | Not Active | Not Active | Not Active | Not Active | –
20 | 4100 | 5600 | 74 | O=C1Nc2ccc(OC(F)(F)F)cc2/C1=C1/Nc2cc(F)c(F)cc2/C1=N\O | – | – | – | – | – | –
